Test results as given in patent US8546389B2 (priority 2010, dated 2013).
Where two headings read alike, the source gives them in different places.

Experiments:
[1] = tested on: subgenomic genotype 1a replicon cell line; assay: HCV replicon assay, genotype 1a; format: cell-based, HCV genotype 1a; details: Hepatitis C virus
Method: (§1) A genotype 1b (Con 1) subgenomic replicon cell line based on Blight et al., Science 2000 290: 1972-1974, modified to express a Renilla luciferase reporter gene was used to assess antiviral activity of test compounds. Cell cultures were maintained in a sub-confluent state in DMEM with glutamine, 10% heat-inactivated foetal bovine serum (FBS) and G418 (Geneticin®).
(§2) For assay, cells were seeded at a density of 7000 cells/well into 96 well tissue culture trays in culture media lacking G418. Compounds were tested in a three fold dilution series, for example starting from 50 uM. After 72 hours incubation at 37° C. and 5% CO2, Renilla luciferase activity was quantified via the Promega Renilla Luciferase or Renilla-Glo™ Luciferase Assay Systems (Promega corporation. The same method was employed for replicon assays using subgenomic genotype 1a and 2a replicon cell lines with a seeding cell density of 5000 cells/well for the 2a cell lines.
(§3) The compound concentration that reduced luciferase activity by 50% (EC50) was calculated using non-linear regression.

[2] = tested on: genotype 1b (Con 1) subgenomic replicon cell line; assay: Combination studies in replicon cells (MacSynergy II); format: cell-based, HCV genotype 1b (Con 1)
Method: as §1, with “synergy” for “antiviral activity”
For assay, cells were seeded at a density of 7000 cells/well into 96 well tissue culture trays in culture media lacking G418. The compound concentration that reduced luciferase activity by 50% (EC50) was determined independently for each compound and used to set the range of concentrations for the combination experiments. […] The ratio of the 2 compounds tested remained fixed across the titration range. […] After 72 hours incubation at 37° C. and 5% CO2, Renilla luciferase activity was quantified via the Promega Renilla Luciferase Assay System.
Results were analysed and levels of synergy assessed via generation of 3D synergy plots using MacSynergy™ II (Prichard, M. N., K. R. Aseltine, and C. Shipman, Jr. 1993. MacSynergy II. Version 1.0. User's manual. University of Michigan, Ann Arbor.). […] Compound 175 was selected as a representative example of the compounds of the invention for synergistic studies.

[3] = tested on: genotype 1b (Con 1) subgenomic replicon cell line; assay: HCV replicon assay, genotype 1b (Renilla luciferase); format: cell-based, HCV genotype 1b (Con 1); details: Hepatitis C virus, genotype 1b replicon
Procedure, shortened: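 Subgenomic replicon cells expressing Renilla luciferase (1b Con1; 1a and 2a lines by the same method) seeded at 7000 cells/well (5000 for 2a) without G418, exposed to 3-fold compound dilutions for 72 h at 37 °C. Luciferase activity measured; EC50 by non-linear regression.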

1b (BK) NS5bΔ21 = 1b (BK) NS5bΔ21 (Hepatitis C virus genotype 1b (isolate BK) (HCV), UniProt P26663); assay: HCV polymerase inhibition assay, genotype 1b; format: biochemical, HCV genotype 1b (BK)
Procedure, shortened: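 Both genotype 1b and 3a enzymes assayed identically: ^33P-GTP incorporation on poly(rC) template, GTP at Km, 50 nM NS5bΔ21, pH 7.5 Tris with 5 mM MgCl2 and MnCl2, 1 h reaction ended by cold EDTA. Filter-bound label counted; IC50 fitted by non-linear regression across three-fold dilution series.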

[4] = tested on: subgenomic genotype 2a replicon cell line; assay: HCV replicon assay, genotype 2a; format: cell-based, HCV genotype 2a; details: Hepatitis C virus
Method: as §1, §2, §3

[5] = target: genotype 3a (VRL-69) NS5bΔ21 polymerase (Hepatitis C virus genotype 3a, UniProt Q81258); assay: HCV polymerase inhibition assay, genotype 3a; format: biochemical, HCV genotype 3a (VRL-69); details: genotype 3a; read-out: 3a NS5b polymerase IC50
Method: HCV polymerase reactions were carried out using a modified method of Howe et al., Antimicrobial Agents and Chemotherapy 2004 48(12): 4813-4821. Reactions contained a final concentration of, 0.5% DMSO, 50 nM, 1b (BK) NS5bΔ21, 20 mM Tris-HCl pH 7.5, 5 mM MgCl2, 5 mM MnCl2, 3 mM DTT, 0.05% BSA, 0.2 U/μL RNasin, 10 μg/mL Poly(rC) template, GTP (at Km) and 0.05 μCi/μL ^33P-GTP in a total reaction volume of 50 μL. Compounds were tested in a three fold dilution series, for example starting from 50 μM. Reactions were initiated with the addition of GTP and terminated after 1 hour with 50 μL ice cold 0.2 M EDTA. Terminated reactions were transferred to DEAE 96-well filter plates, unincorporated nucleotides washed from the filters and 50 μL scintillation fluid added prior to reading on a scintillation counter. Similarly, a genotype 3a (VRL-69) NS5bΔ21 polymerase enzyme assay was conducted using essentially the same method.
The compound concentration that reduced ^33P-GTP incorporation by 50% (IC50) was calculated using non-linear regression.

[6] = 72 hours, luciferase, read-out: genotype 1b EC50 (range class)
[7] = 1b (BK) NS5bΔ21, 33P-GTP incorporation, read-out: 1b polymerase IC50 (range class)
[8] = genotype 1b, read-out: 1b NS5b polymerase IC50

Sequence of 1b (BK) NS5bΔ21 (P26663 2420-2989): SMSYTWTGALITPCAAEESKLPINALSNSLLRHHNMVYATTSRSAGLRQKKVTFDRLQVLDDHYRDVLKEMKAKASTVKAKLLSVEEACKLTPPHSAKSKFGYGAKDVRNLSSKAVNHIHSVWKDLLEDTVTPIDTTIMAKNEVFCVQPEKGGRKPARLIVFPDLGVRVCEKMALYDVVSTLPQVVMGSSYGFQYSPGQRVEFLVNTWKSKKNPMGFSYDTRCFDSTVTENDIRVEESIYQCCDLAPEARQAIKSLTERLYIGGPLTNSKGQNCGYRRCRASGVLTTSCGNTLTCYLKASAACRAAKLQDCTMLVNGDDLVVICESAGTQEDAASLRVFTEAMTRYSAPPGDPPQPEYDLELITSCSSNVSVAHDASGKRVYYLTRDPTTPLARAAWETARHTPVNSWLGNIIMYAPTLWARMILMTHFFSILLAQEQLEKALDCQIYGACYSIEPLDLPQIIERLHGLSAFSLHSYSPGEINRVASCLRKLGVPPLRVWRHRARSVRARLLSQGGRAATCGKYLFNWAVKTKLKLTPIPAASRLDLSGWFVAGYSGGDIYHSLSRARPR
Sequence of genotype 3a (VRL-69) NS5bΔ21 polymerase (Q81258 whole entry, looked up, stated change not applied): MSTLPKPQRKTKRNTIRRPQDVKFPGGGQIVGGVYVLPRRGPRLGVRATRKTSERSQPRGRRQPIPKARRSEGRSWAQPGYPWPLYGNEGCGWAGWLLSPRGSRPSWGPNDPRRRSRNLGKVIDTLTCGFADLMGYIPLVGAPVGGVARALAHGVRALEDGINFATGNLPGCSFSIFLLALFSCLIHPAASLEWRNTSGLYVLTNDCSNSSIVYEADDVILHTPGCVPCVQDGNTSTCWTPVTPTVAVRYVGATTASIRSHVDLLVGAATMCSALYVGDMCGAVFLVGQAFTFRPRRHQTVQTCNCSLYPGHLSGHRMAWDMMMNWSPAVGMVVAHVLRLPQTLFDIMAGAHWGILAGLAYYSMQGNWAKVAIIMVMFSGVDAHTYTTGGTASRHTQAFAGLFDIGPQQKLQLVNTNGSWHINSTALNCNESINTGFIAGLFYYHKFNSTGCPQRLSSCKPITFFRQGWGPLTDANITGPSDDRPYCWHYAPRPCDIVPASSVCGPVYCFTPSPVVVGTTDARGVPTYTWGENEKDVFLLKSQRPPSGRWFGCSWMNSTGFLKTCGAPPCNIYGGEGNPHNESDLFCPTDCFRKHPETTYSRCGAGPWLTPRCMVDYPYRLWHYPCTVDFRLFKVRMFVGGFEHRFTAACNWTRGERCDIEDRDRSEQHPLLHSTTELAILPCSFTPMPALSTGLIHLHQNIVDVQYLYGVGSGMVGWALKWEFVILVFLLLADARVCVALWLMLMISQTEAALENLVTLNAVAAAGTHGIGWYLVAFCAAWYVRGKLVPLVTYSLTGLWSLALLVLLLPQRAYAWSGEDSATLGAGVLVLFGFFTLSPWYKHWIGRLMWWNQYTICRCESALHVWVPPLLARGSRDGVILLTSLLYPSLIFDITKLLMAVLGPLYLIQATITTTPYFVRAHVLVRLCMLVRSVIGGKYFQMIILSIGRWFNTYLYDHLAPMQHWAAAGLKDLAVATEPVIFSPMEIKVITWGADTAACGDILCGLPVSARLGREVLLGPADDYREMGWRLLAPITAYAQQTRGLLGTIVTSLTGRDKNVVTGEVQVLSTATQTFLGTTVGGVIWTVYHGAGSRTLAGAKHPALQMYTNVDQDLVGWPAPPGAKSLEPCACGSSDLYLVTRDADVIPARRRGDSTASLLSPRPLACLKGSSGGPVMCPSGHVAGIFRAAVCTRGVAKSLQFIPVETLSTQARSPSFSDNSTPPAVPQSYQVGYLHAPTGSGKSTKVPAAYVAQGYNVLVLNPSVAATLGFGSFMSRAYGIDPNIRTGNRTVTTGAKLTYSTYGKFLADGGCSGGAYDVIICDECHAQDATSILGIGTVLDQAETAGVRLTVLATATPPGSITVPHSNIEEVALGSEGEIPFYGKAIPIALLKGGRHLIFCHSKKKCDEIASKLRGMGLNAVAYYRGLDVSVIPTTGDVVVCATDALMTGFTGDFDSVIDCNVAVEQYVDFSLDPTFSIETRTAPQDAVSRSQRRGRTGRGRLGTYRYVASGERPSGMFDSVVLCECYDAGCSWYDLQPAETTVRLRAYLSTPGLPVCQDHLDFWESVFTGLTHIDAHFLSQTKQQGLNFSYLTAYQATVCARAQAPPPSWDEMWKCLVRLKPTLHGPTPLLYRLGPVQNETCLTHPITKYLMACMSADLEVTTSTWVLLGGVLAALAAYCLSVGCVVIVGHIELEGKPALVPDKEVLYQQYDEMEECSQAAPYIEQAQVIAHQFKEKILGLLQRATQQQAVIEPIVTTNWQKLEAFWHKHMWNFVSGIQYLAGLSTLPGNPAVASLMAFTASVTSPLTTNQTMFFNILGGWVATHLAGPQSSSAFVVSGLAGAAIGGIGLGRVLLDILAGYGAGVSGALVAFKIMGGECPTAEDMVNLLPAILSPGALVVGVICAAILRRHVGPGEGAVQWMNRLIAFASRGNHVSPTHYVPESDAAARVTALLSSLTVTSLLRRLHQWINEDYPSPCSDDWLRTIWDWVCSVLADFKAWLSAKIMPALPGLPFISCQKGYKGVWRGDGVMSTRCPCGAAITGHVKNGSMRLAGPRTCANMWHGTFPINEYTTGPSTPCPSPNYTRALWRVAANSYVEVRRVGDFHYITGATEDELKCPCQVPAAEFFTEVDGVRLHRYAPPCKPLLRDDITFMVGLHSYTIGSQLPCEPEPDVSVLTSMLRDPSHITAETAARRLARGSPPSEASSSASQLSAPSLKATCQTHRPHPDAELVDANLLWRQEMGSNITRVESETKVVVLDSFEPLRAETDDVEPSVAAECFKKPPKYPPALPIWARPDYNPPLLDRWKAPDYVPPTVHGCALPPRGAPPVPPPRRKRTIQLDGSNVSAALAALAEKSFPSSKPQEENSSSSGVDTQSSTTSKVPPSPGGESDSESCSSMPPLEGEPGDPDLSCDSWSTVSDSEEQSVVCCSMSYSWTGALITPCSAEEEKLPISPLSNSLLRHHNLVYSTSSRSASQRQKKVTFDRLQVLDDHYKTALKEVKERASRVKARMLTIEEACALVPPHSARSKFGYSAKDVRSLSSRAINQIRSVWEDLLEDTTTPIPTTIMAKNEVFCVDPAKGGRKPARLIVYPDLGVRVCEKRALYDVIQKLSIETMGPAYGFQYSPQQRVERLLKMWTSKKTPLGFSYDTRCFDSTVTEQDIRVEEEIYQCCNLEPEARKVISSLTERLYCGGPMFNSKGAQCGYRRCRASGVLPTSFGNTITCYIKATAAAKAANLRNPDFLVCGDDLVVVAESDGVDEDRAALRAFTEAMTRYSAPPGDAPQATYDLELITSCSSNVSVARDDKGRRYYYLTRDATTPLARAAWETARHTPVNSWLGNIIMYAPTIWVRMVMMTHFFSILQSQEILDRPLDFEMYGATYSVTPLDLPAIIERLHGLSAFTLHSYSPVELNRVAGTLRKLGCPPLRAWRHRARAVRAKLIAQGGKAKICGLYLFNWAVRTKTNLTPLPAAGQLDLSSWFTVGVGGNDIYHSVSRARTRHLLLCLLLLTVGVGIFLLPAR

Row | SMILES | EC50 [1] [nM] | synergy in combination with a nucleoside NS5b inhibitor ([2]; with 4-amino-7-(2-C-methyl-β-D-ribofuranosyl)-pyrrolo[2,1-f][1,2,4]triazine, FIG. 1, 95% confidence intervals) | synergy in combination with an NS5a inhibitor ([2]; with BMS-790052, daclatasvir, FIG. 3, 95% confidence intervals) | synergy in combination with a NS3/4a protease inhibitor ([2]; with VX-950, telaprevir, FIG. 2, 95% confidence intervals) | EC50 [3, 6] [nM] | EC50 ([3]; read-out: Replicon 1b EC50) [nM] | IC50 (1b (BK) NS5bΔ21; [7]) [nM] | IC50 (1b (BK) NS5bΔ21; [8]) [nM] | EC50 [4] [nM] | IC50 [5] [nM]
1 | CCN(c1cc2nn(-c3ccc(Cl)cc3)c(C(=O)NC)c2cc1C1CC1)S(C)(=O)=O [Compound 175] | 260 | statistically significant synergy | statistically significant synergy | statistically significant synergy | < 990 | 60 | < 990 | 100 | 80 | 30
2 | CNC(=O)c1c2cc(C3CC3)c(N(C)S(C)(=O)=O)cc2nn1-c1ccc(Br)cc1 [Compound 234] | 240 |  |  |  | < 990 | 80 | < 990 | 140 | 420 | 20
3 | CNC(=O)c1c2cc(C3CC3)c(N(CCC3COC(C)(C)OC3)S(C)(=O)=O)cc2nn1-c1ccc(Cl)cc1 [Compound 235] | 280 |  |  |  | < 990 | 40 | < 990 | 90 | 140 | 30
